In patent US20170107203A1, “HETEROCYCLIC INHIBITORS OF THE SODIUM CHANNEL” (EPIRUS BIOPHARMACEUTICALS, INC., priority 2014, published 2017):

Legend:
hNav1.7 [1] = molecular target: T1, hNav1.7 (Homo sapiens, UniProt Q15858); experiment: Nav1.7 potency, Patchliner automated patch clamp; type: cell-based; conditions: automated patchclamp
T1 construct: expressed in transfected cells
Protocol: (§1) The generation of a HEK 293F cell line stably expressing human Nav1.7/Navp1 was achieved by co-transfecting human SCN9A and human SCN1B cDNAs, subcloned into plasmid vectors, utilizing standard transfection techniques. Clones were selected using appropriate selection agents (0.3 mg/mL Zeocin and 0.8 mg/mL Geneticin) and maintained in Dulbecco's Modified Eagle medium, 10% fetal bovine serum, 1% non-essential amino acids to ˜80% confluence at 37° C. in a humidified incubator with 95% atmosphere and 5% CO2.
(§2) In some cases, the potency of compounds was measured using either the Patchliner automated patch clamp platform (Nanion) or manual patch clamp techniques. Both approaches allowed the compounds to be characterized based upon the ability of a compound to modulate use- and/or state-dependence. The potency data is tabulated in Table 3 and is represented by eight data fields. The first four fields represent potency data measured with the Patchliner automated platform under varying use- and state-dependent electrophysiology protocols similar to the Patch express protocols detailed above. The first data column describes the potency of compounds when the Nav1.7 channel is being repetitively activated at a 7 Hz hyperpolarization frequency (Table 3: hNav1.7: IC50 of inward current block at 7 Hz, Automated patchclamp). The second data column represents the potency at which 50% of the initial hyperpolarization pulse is inhibited by the compounds (Table 3: hNav1.7: IC50 of P1 block, Automated patchclamp). The third data column details the potency of compounds in their ability to block 50% of Nav1.7 channels when these channels are induced into the slow inactivated state (Table 3: hNav1.7: IC50 of slow inactivation block, Automated patchclamp). […] The next three data fields describe the data generated from manual patchclamp electrophysiology measurements using similar methods to those employed for automated patchclamp studies. […] The last column characterizes the state-dependence of compound inhibition. Compounds that maintain the greatest potency for the slow inactivated state over fast inactivated or tonic inhibition at 0.25 Hz are characterized as “state dependent, blocker of slow inactivation”.

human Nav1.7 = molecular target: T2, human Nav1.7 (Homo sapiens, UniProt Q15858); experiment: Assessment of Nav1.7 activity on PatchXpress (voltage dependence / slow inactivation parameters); type: cell-based; conditions: compound at 10 μM, relative to 0.2% DMSO vehicle control; for hNav1.7: Reduction in current at 20 mV (normalized data) Delta Ratio: before/after 30 sec conditioning pulse at 20 mV; for hNav1.7: Shift in voltage dependence of inactivation (mV) Delta Vhalf: PatchXpress
T2 construct: expressed in transfected cells
How it was run: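 HEK293F cells stably co-expressing hNav1.7 and β1 were recorded by automated patch clamp in TEA-based external solution (50 mM NaCl, pH 7.4) with CsF internal solution (pH 7.2). A variable conditioning prepulse inactivated channels, followed by a brief hyperpolarizing step and a depolarizing test pulse. Compounds at 10 μM were compared with 0.2% DMSO vehicle across four parameters.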

hNav1.7 [2] = molecular target: T1, hNav1.7; experiment: Nav1.7 potency, manual patch clamp; type: cell-based; conditions: manual patchclamp
Protocol: as §1, §2

male Sprague-Dawley rat = experiment: Formalin test in rats (automated flinch detection); type: in vivo; conditions: 100 mg/kg SC 1 hour prior to formalin
Protocol: The formalin test in rats was performed as previously described (McNamara, 2007. Proc. Natl. Acad. Sci., vol 104, page 13525) using an automated flinch-detecting system (T. Yaksh, University of California at San Diego, La Jolla, Calif.). On the day of testing, a small metal band (0.5 g) was loosely placed around the right hind paw of a male Sprague-Dawley rat (average weight, ˜250 g). The rats were allowed to acclimate to a Plexiglas chamber for at least 30 min before testing. Formalin was then injected (50 μl of 2.5% formalin, diluted in saline) into the dorsal surface of the right hind paw of the rat, and the animal was put into a chamber of the automated formalin apparatus where movement of the formalin-injected paw was recorded. The number of paw flinches per minute was tallied for the next 60 minutes. The time interval phases were defined as follows: Phase I (0-9 mins), Phase II (10-60 mins), Phase IIA (10-40 mins), and Phase IIB (41-60 mins). The following compounds were administered 1 hour prior to formalin administration. Compound 52 from Table 1 was administered by oral gavage in 4% DMSO, 10% Solutol, 86% H2O. Gabapentin was administered subcutaneously in 0.9% NaCl (aq).

[3] = 7 Hz, read-out: Nav1.7 IC50 INWARD CURRENT BLOCK (nM) (7 Hz, Automated Patchclamp)
[4] = slow inactivated state, read-out: Nav1.7 IC50 SLOW INACTIVATION BLOCK (nM) (Automated Patchclamp)
[5] = slow inactivated state, read-out: Nav1.7 IC50 SLOW INACTIVATION BLOCK (nM) (Manual Patchclamp)
[6] = initial pulse (P1), read-out: Nav1.7 IC50 P1 BLOCK (nM) (Automated Patchclamp)

T2 sequence (Q15858 whole entry): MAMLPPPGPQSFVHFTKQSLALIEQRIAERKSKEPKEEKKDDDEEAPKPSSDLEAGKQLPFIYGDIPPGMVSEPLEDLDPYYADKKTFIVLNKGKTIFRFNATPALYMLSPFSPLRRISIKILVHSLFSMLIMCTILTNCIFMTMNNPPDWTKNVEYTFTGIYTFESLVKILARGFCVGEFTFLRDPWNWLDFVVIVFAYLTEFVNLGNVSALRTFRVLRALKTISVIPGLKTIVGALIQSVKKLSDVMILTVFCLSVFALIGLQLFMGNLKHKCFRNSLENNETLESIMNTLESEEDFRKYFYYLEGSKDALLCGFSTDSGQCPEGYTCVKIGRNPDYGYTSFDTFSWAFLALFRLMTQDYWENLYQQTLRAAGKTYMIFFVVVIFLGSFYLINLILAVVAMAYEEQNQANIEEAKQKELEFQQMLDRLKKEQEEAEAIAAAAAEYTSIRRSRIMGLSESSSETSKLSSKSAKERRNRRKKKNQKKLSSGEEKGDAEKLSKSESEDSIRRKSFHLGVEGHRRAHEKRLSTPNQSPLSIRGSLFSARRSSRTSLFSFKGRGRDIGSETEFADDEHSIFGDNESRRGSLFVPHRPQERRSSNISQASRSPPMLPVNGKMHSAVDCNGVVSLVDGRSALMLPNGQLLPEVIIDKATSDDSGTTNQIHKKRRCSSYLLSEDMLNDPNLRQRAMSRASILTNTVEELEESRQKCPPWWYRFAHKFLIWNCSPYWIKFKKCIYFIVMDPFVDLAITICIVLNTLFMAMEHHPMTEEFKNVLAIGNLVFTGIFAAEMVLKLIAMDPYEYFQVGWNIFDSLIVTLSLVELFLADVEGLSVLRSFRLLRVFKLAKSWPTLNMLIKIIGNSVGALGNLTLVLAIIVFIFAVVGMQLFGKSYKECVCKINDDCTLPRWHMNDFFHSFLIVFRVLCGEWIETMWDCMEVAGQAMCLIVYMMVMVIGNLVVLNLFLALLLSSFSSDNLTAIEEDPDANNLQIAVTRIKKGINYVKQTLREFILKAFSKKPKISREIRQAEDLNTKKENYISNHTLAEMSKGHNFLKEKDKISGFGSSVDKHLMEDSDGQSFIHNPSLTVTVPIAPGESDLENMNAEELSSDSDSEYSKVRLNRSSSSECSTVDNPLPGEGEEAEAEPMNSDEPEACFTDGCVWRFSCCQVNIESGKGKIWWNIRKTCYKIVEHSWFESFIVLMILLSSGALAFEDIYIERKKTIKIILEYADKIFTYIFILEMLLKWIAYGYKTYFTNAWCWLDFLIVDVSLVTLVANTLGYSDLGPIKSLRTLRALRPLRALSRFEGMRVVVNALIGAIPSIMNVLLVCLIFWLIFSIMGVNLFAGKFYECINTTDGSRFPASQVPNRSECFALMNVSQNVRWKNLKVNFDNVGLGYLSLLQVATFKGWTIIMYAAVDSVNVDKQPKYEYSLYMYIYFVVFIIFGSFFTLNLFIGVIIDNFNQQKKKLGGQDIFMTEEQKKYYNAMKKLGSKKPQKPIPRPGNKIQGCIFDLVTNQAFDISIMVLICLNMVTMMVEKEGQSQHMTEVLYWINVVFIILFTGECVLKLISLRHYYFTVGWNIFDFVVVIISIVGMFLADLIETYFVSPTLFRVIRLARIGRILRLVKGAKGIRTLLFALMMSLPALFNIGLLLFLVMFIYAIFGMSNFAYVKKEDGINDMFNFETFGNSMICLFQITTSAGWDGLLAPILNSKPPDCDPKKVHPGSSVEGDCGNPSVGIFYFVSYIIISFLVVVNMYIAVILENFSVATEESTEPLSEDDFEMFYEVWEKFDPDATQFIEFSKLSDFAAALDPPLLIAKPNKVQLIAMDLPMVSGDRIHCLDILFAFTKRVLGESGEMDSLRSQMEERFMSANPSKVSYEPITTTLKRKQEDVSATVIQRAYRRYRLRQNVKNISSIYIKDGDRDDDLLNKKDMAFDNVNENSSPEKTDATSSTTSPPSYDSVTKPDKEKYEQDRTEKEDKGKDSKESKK
T2 sequence (Q07699 19-218 partner): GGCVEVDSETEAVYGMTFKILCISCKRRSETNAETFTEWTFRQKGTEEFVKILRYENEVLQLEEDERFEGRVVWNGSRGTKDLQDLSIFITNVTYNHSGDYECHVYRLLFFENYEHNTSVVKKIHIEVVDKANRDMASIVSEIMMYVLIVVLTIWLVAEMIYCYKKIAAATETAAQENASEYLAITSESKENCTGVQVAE
T1 sequence (Q15858 whole entry): as the sequence (Q15858 whole entry) above
T1 sequence (Q07699 19-218 partner): as the sequence (Q07699 19-218 partner) above

SMILES	IC50 (hNav1.7 [1]; 0.25 Hz, read-out: Nav1.7 IC50 INWARD CURRENT BLOCK (nM) (0.25 Hz, Automated Patchclamp))	IC50 (hNav1.7 [1]; [3])	IC50 (hNav1.7 [1]; [4])	hNav1.7: Reduction in current at 20 mV (normalized data) Delta Ratio (human Nav1.7)	hNav1.7: Voltage dependence of activation (mV) VDEP (human Nav1.7)	hNav1.7: Voltage dependence of fast inactivation (mV) VDEP (human Nav1.7)	hNav1.7: Shift in voltage dependence of inactivation (mV) Delta Vhalf (human Nav1.7)	IC50 (hNav1.7 [2]; 7 Hz, read-out: Nav1.7 IC50 INWARD CURRENT BLOCK (nM) (7 Hz, Manual Patchclamp))	IC50 (hNav1.7 [2]; [5])	Phase 1 (paw flinches) (male Sprague-Dawley rat; Phase I (0-9 mins))	Total Phase 2 (paw flinches) (male Sprague-Dawley rat; Phase II (10-60 mins))	Phase 2a (paw flinches) (male Sprague-Dawley rat; Phase IIA (10-40 mins))	Phase 2b (paw flinches) (male Sprague-Dawley rat; Phase IIB (41-60 mins))	IC50 (hNav1.7 [1]; [6])
CN[C@H](CC(C)C)C(=O)NCCOc1cc(F)cc(C(F)(F)F)c1 [Compound 16, (R)-N-(2-(3-fluoro-5-(trifluoromethyl)phenoxy)ethyl)-4-methyl-2-(methylamino)pentanamide]	15000 nM	9620 nM	8120 nM	−0.11	−2.80 mV	−2.60 mV	−14.70 mV	23200 nM	3500 nM	–	–	–	–	–
NCC1(CC(=O)O)CCCCC1 [Gabapentin]	–	–	–	–	–	–	–	–	–	320 ± 58	562 ± 213	486 ± 202	77 ± 47	–
N[C@@H](c1ccc(Cl)cc1)c1nc2cc(C(F)(F)F)cc(C(F)(F)F)c2[nH]1 [Compound 54, (S)-(4,6-bis(trifluoromethyl)-1H-benzo[d]imidazol-2-yl)(4-chlorophenyl)methanamine]	–	–	2890 nM	−0.26	−10 mV	−8.6 mV	−27.4 mV	–	312 nM	–	–	–	–	–
CC(C)C[C@@H](N)C(=O)NC(COc1cc(C(F)(F)F)cc(C(F)(F)F)c1)c1ccccc1 (stereo partly drawn) [Compound 38, (2R)-2-amino-N-(2-(3,5-bis(trifluoromethyl)phenoxy)-1-phenylethyl)-4-methylpentanamide]	–	–	5320 nM	−0.34	−11.5 mV	−15.3 mV	−33.7 mV	–	436 nM	–	–	–	–	10300 nM
CC(C)C[C@@H](N)C(=O)N[C@@H](C)COc1cc(C(F)(F)F)cc(C(F)(F)F)c1 [Compound 1, (R)-2-amino-N-((S)-1-(3,5-bis(trifluoromethyl)phenoxy)propan-2-yl)-4-methylpentanamide]	–	–	2580 nM	−0.30	−8.60 mV	−6.80 mV	−20.90 mV	–	568 nM	–	–	–	–	15500 nM
CC(C)C[C@@H](N)C(=O)NC(C)COc1cc(C(F)(F)F)cc(C(F)(F)F)c1 (stereo partly drawn) [Compound 6, (2R)-2-amino-N-(1-(3,5-bis(trifluoromethyl)phenoxy)propan-2-yl)-4-methylpentanamide]	–	1660 nM	2770 nM	−0.25	−4.80 mV	−6.20 mV	−32.70 mV	–	–	–	–	–	–	12700 nM
CC(C)CC(N)C(=O)N[C@@H](C)COc1cc(C(F)(F)F)cc(C(F)(F)F)c1 (stereo partly drawn) [Compound 10, 2-amino-N-((S)-1-(3,5-bis(trifluoromethyl)phenoxy)propan-2-yl)-4-methylpentanamide]	–	1890 nM	4120 nM	−0.20	−3.70 mV	−3.50 mV	−31.40 mV	–	–	–	–	–	–	11500 nM
NCC(=O)NCc1cc(C(F)(F)F)cc(C(F)(F)F)c1 [Compound 78, 2-amino-N-(3,5-bis(trifluoromethyl)benzyl)acetamide]	–	–	–	−0.04	−10.5 mV	−4.6 mV	−4.2 mV	–	–	–	–	–	–	–
O=C1CNCCN1CCCc1nc2cc(C(F)(F)F)cc(C(F)(F)F)c2[nH]1 [Compound 69]	–	–	–	−0.09	−9.2 mV	−4.9 mV	−7.5 mV	–	–	–	–	–	–	–
NC1CCN(C(=O)Cc2nc3cc(C(F)(F)F)cc(C(F)(F)F)c3[nH]2)CC1 [Compound 90, 1-(4-aminopiperidin-1-yl)-2-(4,6-bis(trifluoromethyl)-1H-benzo[d]imidazol-2-yl)ethan-1-one]	–	–	–	0.01	−2.9 mV	0.1 mV	2.3 mV	–	–	–	–	–	–	–
COC[C@@H](N)C(=O)NCC(=O)NCc1cc(C(F)(F)F)cc(C(F)(F)F)c1 [Compound 80, (R)-2-amino-N-(2-((3,5-bis(trifluoromethyl)benzyl)amino)-2-oxoethyl)-3-methoxypropanamide]	–	–	–	−0.03	−9.3 mV	−3.8 mV	−7.2 mV	–	–	–	–	–	–	–
Cc1cccc(C)c1OCC(C)NC(=O)[C@H](N)C(C)C (stereo partly drawn) [Compound 12, (2R)-2-amino-N-(1-(2,6-dimethylphenoxy)propan-2-yl)-3-methylbutanamide]	–	–	–	−0.19	−7.30 mV	−4.30 mV	−25.70 mV	–	–	–	–	–	–	–
FC(F)(F)c1cc(C(F)(F)F)c2nc([C@H]3CCCCN3)[nH]c2c1 [Compound 84, (R)-2-(piperidin-2-yl)-5,7-bis(trifluoromethyl)-1H-benzo[d]imidazole]	–	–	–	0.02	−6.7 mV	−2.4 mV	0 mV	–	–	–	–	–	–	–
NCC[C@@H]1Nc2c(cc(C(F)(F)F)cc2C(F)(F)F)NC1=O [Compound 39, (S)-3-(2-aminoethyl)-5,7-bis(trifluoromethyl)-3,4-dihydroquinoxalin-2(1H)-one]	–	–	–	−0.08	−7.40 mV	−3.10 mV	−4.90 mV	–	–	–	–	–	–	–
